For this experiment, the target named is 11β-HSD1 (Homo sapiens (Human), UniProt P28845). Briefly: 11β-HSD1 inhibiting activity, HTRF assay with human microsomal fractions. It is filed as biochemical. The settings on record: 160 nM cortisone, 200 μM NADPH, 2 h at 37° C. The procedure:
The inhibiting activity of 11β-HSD1 derived from microsomal fractions was measured using the HTRF assay (62CO2PEB, Cisbio). […] Europium (Eu^3+) cryptate and XL665-conjugated cortisol were then added to each well and incubated for an additional 2 h at room temperature. The Cortisol concentration was calculated u sing a calibration curve. The IC50 values were calculated from dose response curves using GraphPad Prism software.
(In general: Time-resolved FRET reads energy transfer from a long-lived donor to a nearby acceptor.)

11β-HSD1, sequence (P28845 whole entry): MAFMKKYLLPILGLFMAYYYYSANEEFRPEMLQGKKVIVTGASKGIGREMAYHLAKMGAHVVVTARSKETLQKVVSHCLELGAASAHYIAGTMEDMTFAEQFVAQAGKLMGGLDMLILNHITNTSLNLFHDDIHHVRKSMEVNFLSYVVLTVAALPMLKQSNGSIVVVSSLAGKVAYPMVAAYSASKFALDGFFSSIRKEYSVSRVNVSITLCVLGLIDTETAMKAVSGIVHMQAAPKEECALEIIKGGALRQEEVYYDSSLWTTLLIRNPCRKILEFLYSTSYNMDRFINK

`NC(=O)C12CC3CC(C1)C(NC(=O)C1(CNC(=O)c4ccc(F)c(F)c4)CC1)C(C3)C2` (centres unmarked) [Example 25] displayed an IC50 of 9.6 nM.

Turning to `NC(=O)C12CC3CC(C1)C(NC(=O)c1cccc(NS(=O)(=O)c4ccc(Br)cc4Cl)c1)C(C3)C2` (centres unmarked) [Example 116, E-4-[3-(2-chloro-4-bromo-benzenesulfonylamino)-benzamido]-adamantan-1-carboxylic acid amide], the IC50 was determined as 14.5 nM.

As to `O=C(NC1C2CC3CC1CC(O)(C3)C2)C1(CNS(=O)(=O)c2ccccc2F)CC1` (centres unmarked) [Example 2, 1-[(2-fluoro-benzenesulfonylamino)methyl]-N-(5-hydroxyadamantan-2-yl)cyclopropanecarboxamide], it took 26.6 nM to reach half-maximal inhibition (IC50).

`NC(=O)C12CC3CC(C1)C(NC(=O)c1cccc(NS(=O)(=O)c4ccccc4C(F)(F)F)c1)C(C3)C2` (centres unmarked) [Example 100] showed an IC50 of 15.3 nM.

`NC(=O)C12CC3CC(C1)C(NC(=O)c1cccc(NS(=O)(=O)c4cccc(Cl)c4)c1F)C(C3)C2` (centres unmarked) [Example 132, E-4-[2-fluoro-3-(3-chlorobenzenesulfonylamino)benzamido]adamantan-1-carboxylic acid amide] returned an IC50 of 148 nM.

Molecule `NC(=O)C12CC3CC(C1)C(NC(=O)c1cccc(NS(=O)(=O)c4ccccc4)c1)C(C3)C2` (centres unmarked) [Example 105] displayed an IC50 of 42.7 nM.

Regarding `NC(=O)C12CC3CC(C1)C(NC(=O)c1cccc(NS(=O)(=O)c4cccc(F)c4)c1)C(C3)C2` (centres unmarked) [Example 120, E-4-[3-(3-fluoro-benzenesulfonylamino)-benzamido]-adamantan-1-carboxylic acid amide], the IC50 was found to be 27.2 nM.

As to `Cn1ccc2cc(S(=O)(=O)NCC3(C(=O)NC4C5CC6CC4CC(C(N)=O)(C6)C5)CC3)ccc21` (centres unmarked) [Example 26, E-4-[1-((1-methyl-1H-indole-5-sulfonylamino)methyl)cyclopropanecarboxamido]-adamantan-1-carboxylic acid amide], the IC50 is 1.2 nM.

On to `Cc1c(Cl)cccc1S(=O)(=O)NC1(C(=O)NC2C3CC4CC2CC(C(N)=O)(C4)C3)CC1` (centres unmarked) [Example 41, E-4-[1-(3-chloro-2-methyl-benzenesulfonylamino)cyclopropanecarboxamido]-adamantan-1-carboxylic acid amide], for which inhibition was half-maximal at 10 nM (IC50).

In turn, `Cc1n[nH]c(C)c1S(=O)(=O)Nc1cccc(C(=O)NC2C3CC4CC2CC(C(N)=O)(C4)C3)c1` (centres unmarked) [Example 108, E-4-[3-(3,5-dimethyl-1H-pyrazole-4-sulfonylamino)-benzamido]-adamantan-1-carboxylic acid amide] gave an IC50 of 51.2 nM.

Regarding `CN(CC1(C(=O)NC23CC4CC(CC(C4)C2)C3)CC1)S(=O)(=O)c1ccccc1F` [Example 31, N-(adamantan-1-yl)-1-((2-fluoro-N-methylbenzenesulfonylamino)methyl)cyclopropanecarboxamido], the IC50 was 1.2 nM.

For `Cc1cccc(F)c1S(=O)(=O)N(C)CC1(C(=O)NC2C3CC4CC2CC(C(N)=O)(C4)C3)CC1` (centres unmarked) [Example 13, E-4-[1-((2-fluoro-N,6-dimethyl-benzenesulfonylamino)methyl)cyclopropanecarboxamido]-adamantan-1-carboxylic acid amide], inhibition was half-maximal at 2.8 nM (IC50).

Molecule `Cc1cc(S(=O)(=O)NCC2(C(=O)NC3C4CC5CC3CC(C(N)=O)(C5)C4)CC2)c(F)cc1Cl` (centres unmarked) [Example 15, E-4-[1-((4-chloro-2-fluoro-5-methyl-benzenesulfonylamino)methyl)cyclopropanecarboxamido]-adamantan-1-carboxylic acid amide] had an IC50 of 28 nM.

On to `Cc1cccc(F)c1S(=O)(=O)NC1(C(=O)NC2C3CC4CC2CC(C(N)=O)(C4)C3)CC1` (centres unmarked) [Example 40, E-4-[1-(2-fluoro-6-methyl-benzenesulfonylamino)cyclopropanecarboxamido]-adamantan-1-carboxylic acid amide], for which it took 1.7 nM to reach half-maximal inhibition (IC50).

In turn, `Cc1c(Cl)cccc1S(=O)(=O)NCC1(C(=O)NC2C3CC4CC2CC(C(N)=O)(C4)C3)CC1` (centres unmarked) [Example 5, E-4-[1-((3-chloro-2-methyl-benzenesulfonylamino)methyl)cyclopropanecarboxamido]-adamantan-1-carboxylic acid amide] displayed an IC50 of 2.7 nM.

The molecule `NC(=O)C12CC3CC(C1)C(NC(=O)c1cccc(NS(=O)(=O)c4ccccc4C(F)(F)F)c1)C(C3)C2` (centres unmarked) [Example 115] came in with an IC50 of 19.1 nM.

`CCN(CC1(C(=O)NC2C3CC4CC2CC(C(N)=O)(C4)C3)CC1)S(=O)(=O)c1ccccc1F` (centres unmarked) [Example 32, E-4-[1-((N-ethyl-fluoro-benzenesulfonylamino)methyl)cyclopropanecarboxamido]-adamantan-1-carboxylic acid amide] displayed an IC50 of 1.4 nM.

In the case of `NC(=O)C12CC3CC(C1)C(NC(=O)C1(NS(=O)(=O)c4ccc(F)c(F)c4F)CC1)C(C3)C2` (centres unmarked) [Example 47, E-4-[1-(2,3,4-trifluoro-benzenesulfonylamino)cyclopropanecarboxamido]-adamantan-1-carboxylic acid amide], inhibition was half-maximal at 495 nM (IC50).

In turn, `NC(=O)C12CC3CC(C1)C(NC(=O)C1(NS(=O)(=O)c4cccs4)CC1)C(C3)C2` (centres unmarked) [Example 48, E-4-[1-(thiophen-2-sulfonylamino)cyclopropanecarboxamido]-adamantan-1-carboxylic acid amide] registered an IC50 of 62.8 nM.

The molecule `O=C(O)CC[C@]12C[C@@H]3C[C@H](C1)[C@@H](NC(=O)C1(CNS(=O)(=O)c4ccccc4F)CC1)[C@@H](C3)C2` [Example 33, E-3-(4-(1((2-fluoro-benzenesulfonylamino)methyl)cyclopropanecarboxamido)adamantan-1-yl)propanoic acid] displayed an IC50 of 1.5 nM.

The molecule `NC(=O)C12CC3CC(C1)C(NC(=O)C1(NS(=O)(=O)c4cc(Cl)c(Cl)cc4F)CC1)C(C3)C2` (centres unmarked) [Example 45, E-4-[1-(2-fluoro-4,5-dichloro-benzenesulfonylamino)cyclopropanecarboxamido]-adamantan-1-carboxylic acid amide] returned an IC50 of 32.5 nM.

The molecule `NC(=O)C12CC3CC(C1)C(NC(=O)c1cccc(NS(=O)(=O)c4ccccc4C(F)(F)F)c1F)C(C3)C2` (centres unmarked) [Example 125, E-4-[2-fluoro-3-(2-(trifluoromethyl)benzenesulfonylamino)benzamido]adamantan-1-carboxylic acid amide] yielded a half-maximal inhibitory concentration (IC50) of 11.6 nM.

Regarding `CC(C)(CNS(=O)(=O)c1cccc(Cl)c1)C(=O)NC1C2CC3CC1CC(C(N)=O)(C3)C2` (centres unmarked) [Example 67, E-4-(3-(3-chlorobenzenesulfonylamino)-2,2-dimethylpropanamido)adamantan-1-carboxylic acid amide], the IC50 was 7.1 nM.

The molecule `NC(=O)C12CC3CC(C1)C(NC(=O)C1(NC(=O)c4ccc(C(F)(F)F)cn4)CC1)C(C3)C2` (centres unmarked) [Example 64] showed an IC50 of 111 nM.

As to `NC(=O)C12CC3CC(C1)C(NC(=O)C1(CNS(=O)(=O)c4ccc(F)cc4C(F)(F)F)CC1)C(C3)C2` (centres unmarked) [Example 20, E-4-[1-((2-(trifluoromethyl)-4-fluoro-benzenesulfonylamino)methyl)cyclopropanecarboxamido]-adamantan-1-carboxylic acid amide], the IC50 turned out to be 102 nM.

Consider `NC(=O)C12CC3CC(C1)C(NC(=O)C1(CNS(=O)(=O)c4cc(Cl)c(Cl)cc4F)CC1)C(C3)C2` (centres unmarked) [Example 16, E-4-[1-((4,5-dichloro-2-fluoro-benzenesulfonylamino)methyl)cyclopropanecarboxamido]-adamantan-1-carboxylic acid amide], for which the IC50 is 5 nM.

As to `NC(=O)C12CC3CC(C1)C(NC(=O)c1cccc(NS(=O)(=O)c4ccc(C(F)(F)F)c(Cl)c4)c1)C(C3)C2` (centres unmarked) [Example 114, E-4-[3-(3-chloro-4-(trifluoromethyl)benzenesulfonylamino)benzamido]adamantan-1-carboxylic acid amide], the IC50 came to 30.7 nM.

In turn, `NC(=O)C12CC3CC(C1)C(NC(=O)C1(CNC(=O)N4CCc5ccccc5C4)CC1)C(C3)C2` (centres unmarked) [Example 140] came in with an IC50 of 97.8 nM.

The molecule `CN(c1cccc(C(=O)NC2C3CC4CC2CC(C(N)=O)(C4)C3)c1)S(=O)(=O)c1ccccc1C(F)(F)F` (centres unmarked) [Example 99, E-4-(3-[(2-trifluoromethyl-benzenesulfonyl)-methylamino]-benzamido)-adamantan-1-carboxylic acid amide] displayed an IC50 of 1.9 nM.

`NC(=O)C12CC3CC(C1)C(NC(=O)C1(NS(=O)(=O)c4ccc(F)cc4)CC1)C(C3)C2` (centres unmarked) [Example 42, E-4-[1-(4-fluoro-benzenesulfonylamino)cyclopropanecarboxamido]-adamantan-1-carboxylic acid amide] came in with an IC50 of 6.4 nM.

Consider `NC(=O)C12CC3CC(C1)C(NC(=O)C1(CNS(=O)(=O)c4ccc(F)c(F)c4)CC1)C(C3)C2` (centres unmarked) [Example 21, E-4-[1-((3,4-difluoro-benzenesulfonylamino)methyl)cyclopropanecarboxamido]-adamantan-1-carboxylic acid amide], for which half-maximal inhibition (IC50) was put at 30.8 nM.

Molecule `NC(=O)C12CC3CC(C1)C(NC(=O)C1(CNS(=O)(=O)c4ccco4)CC1)C(C3)C2` (centres unmarked) [Example 17, E-4-[1-((furan-2-sulfonylamino)methyl)cyclopropanecarboxamido]-adamantan-1-carboxylic acid amide] yielded an IC50 of 132 nM.

The molecule `NC(=O)C12CC3CC(C1)C(NC(=O)c1ccccc1NS(=O)(=O)c1ccccc1F)C(C3)C2` (centres unmarked) [Example 92, E-4-[2-(2-fluoro-benzenesulfonylamino)-benzamido]-adamantan-1-carboxylic acid amide] showed an IC50 of 148 nM.

As to `NC(=O)C12CC3CC(C1)C(NC(=O)c1cccc(NS(=O)(=O)c4cc(F)ccc4F)c1)C(C3)C2` (centres unmarked) [Example 122, E-4-[3-(2,5-difluoro-benzenesulfonylamino)-benzamido]-adamantan-1-carboxylic acid amide], the IC50 worked out at 15.1 nM.

In turn, `NC(=O)C12CC3CC(C1)C(NC(=O)c1cccc(NS(=O)(=O)c4ccc(F)cc4F)c1)C(C3)C2` (centres unmarked) [Example 121, E-4-[3-(2,4-difluoro-benzenesulfonylamino)-benzamido]-adamantan-1-carboxylic acid amide] had an IC50 of 7.8 nM.

As usually defined, the IC50 is the midpoint of a concentration-inhibition curve.

The values are drawn from patent US9464044B2, “Compound having ability to inhibit 11Beta-HSD1 enzyme or pharmaceutically acceptable salt thereof, method for producing same, and pharmaceutical composition containing same as active ingredient” (AHN-GOOK PHARMACEUTICAL CO., LTD., priority 2012, dated 2016).
